Values of other authors, collected in patent US20210322384A1, “Method of Treatment for Ketamine Infusion” (Eleusis therapeutics us, inc., priority 2018, published 2021).
Like-named read-outs stand apart in the source and are kept apart here.

Experiments:
patients [1] = conditions: for improvement in MADRS score relative to standard antidepressants alone: plus standard antidepressants
patients [2] = conditions: current state of the art ketamine treatments; industry standard

SMILES | reduction in MADRS score relative to control group (patients [1]; after 25 days) | improvement in MADRS score relative to standard antidepressants alone (patients [1]; at 24 hours after intranasal 84 mg) | improvement in MADRS score relative to standard antidepressants alone (patients [1]; at four hours after intranasal 84 mg) | side effects of nasal spray protocol (patients [1]; intranasal 84 mg aerosol spray) | response rate in alleviating depression symptoms (patients [2]) [%]
CN[C@]1(c2ccccc2Cl)CCCCC1=O [esketamine] | did not result in any significant reduction | significantly greater improvement | significantly greater improvement | significant side effects | 
CNC1(c2ccccc2Cl)CCCCC1=O (centres unmarked) [ketamine] |  |  |  |  | ~70
